How the values were obtained:
[1] = target: T1, High mobility group protein B1 (Homo sapiens, UniProt P09429)
T1 sequence (P09429 whole entry): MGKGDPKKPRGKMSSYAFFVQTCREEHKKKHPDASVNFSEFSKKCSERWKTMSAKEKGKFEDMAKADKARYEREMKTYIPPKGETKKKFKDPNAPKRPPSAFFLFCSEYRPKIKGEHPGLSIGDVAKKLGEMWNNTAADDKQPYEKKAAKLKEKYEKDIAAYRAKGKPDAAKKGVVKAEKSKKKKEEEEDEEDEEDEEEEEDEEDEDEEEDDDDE
Description: Binding affinity to HMGB1 (unknown origin) assessed as dissociation constant by SPR analysis

[2] = test system: RAW264.7; assay: Anti-inflammatory activity against mouse RAW264.7 cells assessed as inhibition of LPS-induced NO production

SMILES | Kd [1] [µM] | IC50 [2] [µM]
CO[C@H]1O[C@H](COS(=O)(=O)O)[C@@H](O[C@@H]2O[C@@H](C(=O)O)[C@@H](COC[C@H]3O[C@H](COS(=O)(=O)O)[C@@H](O[C@@H]4O[C@H](C(=O)O)[C@@H](COC[C@H]5O[C@H](COS(=O)(=O)O)[C@@H](O)[C@H](O)[C@H]5NS(=O)(=O)O)[C@H](O)[C@H]4O)[C@H](OS(=O)(=O)O)[C@H]3NS(=O)(=O)O)[C@H](O)[C@H]2OS(=O)(=O)O)[C@H](O)[C@H]1NS(=O)(=O)O | 4.5 | 
COc1ccc(-c2coc3cc(O)ccc3c2=O)cc1O [CALYCOSIN] | 0.12 | 
O=C(O)c1cc(-c2ccc(F)cc2F)ccc1O [DIFLUNISAL] | 16 | 
O=C(O[C@@H]1Cc2c(O)cc(O)cc2O[C@@H]1c1cc(O)c(O)c(O)c1)c1cc(O)c(O)c(O)c1 [EPIGALOCATECHIN GALLATE] |  | < 1
C[C@@H]1O[C@@H](OC[C@H]2O[C@@H](Oc3c(-c4ccc(O)c(O)c4)oc4cc(O)cc(O)c4c3=O)[C@H](O)[C@@H](O)[C@@H]2O)[C@H](O)[C@H](O)[C@H]1O [RUTIN] | 0.26 | 

Results, then the compound that gave them:

Kd [1] [µM] | IC50 [2] [µM] | SMILES
 | 15.9 | COc1ccc(/C=C/C(=O)C[C@H]2CC[C@]3(C)[C@H]4C(=O)C=C5[C@@H]6C[C@@](C)(C(=O)Oc7cn(C8O[C@@H](OC(C)=O)[C@@H](OC(C)=O)[C@@H](OC(C)=O)[C@@H]8OC(C)=O)nn7)CC[C@]6(C)CC[C@@]5(C)[C@]4(C)CC[C@H]3C2(C)C)cc1 (stereo not given in full)
 | 13.4 | COC(=O)C(Cc1c[nH]c2ccccc12)NC(=O)[C@@]1(C)CC[C@]2(C)CC[C@]3(C)C(=CC(=O)[C@@H]4[C@@]5(C)CCC(OC(=O)CCCCC6CCSS6)C(C)(C)[C@@H]5CC[C@]43C)[C@@H]2C1 (stereo not given in full)
1 |  | CC(=O)Oc1ccccc1C(=O)O [ASPIRIN]
 | 5 | CC1(C)[C@@H](OC(=O)CCC(=O)O)CC[C@]2(C)[C@H]3C(=O)C=C4[C@@H]5C[C@@](C)(C(=O)O)CC[C@]5(C)CC[C@@]4(C)[C@]3(C)CC[C@@H]12 [CARBENOXOLONE]
0.1 |  | O=c1c(O[C@@H]2O[C@H](CO)[C@@H](O)[C@H](O)[C@H]2O)c(-c2ccc(O)c(O)c2)oc2cc(O)cc(O)c12 [ISOQUERCETIN]

Reference: ChEMBL document CHEMBL6078690, “Targeting HMGB1 and Its Interaction with Receptors: Challenges and Future Directions” (J Med Chem, 2024)
